PubChem BioAssay AID1918994 (Molecular Pharmacology Branch, DTP, NCI, 2023)

Tested on: 292921-168-R-J2-PDC complex spheroid growth
Test: Anticancer human tumor 292921-168-R-J2-PDC patient-derived pancreatic carcinoma cell line growth inhibition [AhR]
Settings: for IC50: curve of first compound; for viability, T/C: stronger effect = lower value
Procedure, shortened: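 Agents were dosed in half-log steps down from roughly clinical Cmax, or from 10 microM where Cmax was unknown, alone and with AhR antagonists. Read-out: percent test/control growth of tumor spheroids containing HUVEC and MSC stromal cells.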
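Note: spheroids exposed to compounds for seven days after three days of growth.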

CC1(C)CCC(CN2CCN(c3ccc(C(=O)NS(=O)(=O)c4ccc(NCC5CCOCC5)c([N+](=O)[O-])c4)c(Oc4cnc5[nH]ccc5c4)c3)CC2)=C(c2ccc(Cl)cc2)C1 + Cc1ccccc1N=Nc1ccc(NC(=O)c2ccnn2C)c(C)c1
IC50 (second compound 0.1 µM): 6.35 µM | IC50 (second compound 0.316 µM): 6.29 µM | IC50 (second compound 1 µM): 6.07 µM | IC50 (second compound 3.16 µM): 5.51 µM | IC50 (second compound 10 µM): 4.73 µM | viability, T/C (second compound 0.1 µM, first compound 0.0316 µM): 91.2% | viability, T/C (second compound 0.1 µM, first compound 0.1 µM): 90.5% | viability, T/C (second compound 0.1 µM, first compound 0.316 µM): 109% | viability, T/C (second compound 0.1 µM, first compound 1 µM): 103% | viability, T/C (second compound 0.1 µM, first compound 3.16 µM): 112% | viability, T/C (second compound 0.1 µM, first compound 10 µM): 16.8% | viability, T/C (second compound 0.316 µM, first compound 0.0316 µM): 88.3% | viability, T/C (second compound 0.316 µM, first compound 0.1 µM): 89.3% | viability, T/C (second compound 0.316 µM, first compound 0.316 µM): 97.4% | viability, T/C (second compound 0.316 µM, first compound 1 µM): 96% | viability, T/C (second compound 0.316 µM, first compound 3.16 µM): 108% | viability, T/C (second compound 0.316 µM, first compound 10 µM): 19% | viability, T/C (second compound 1 µM, first compound 0.0316 µM): 96.8% | viability, T/C (second compound 1 µM, first compound 0.1 µM): 101% | viability, T/C (second compound 1 µM, first compound 0.316 µM): 77.8% | viability, T/C (second compound 1 µM, first compound 1 µM): 95.1% | viability, T/C (second compound 1 µM, first compound 3.16 µM): 100% | viability, T/C (second compound 1 µM, first compound 10 µM): 16.2% | viability, T/C (second compound 3.16 µM, first compound 0.0316 µM): 79.8% | viability, T/C (second compound 3.16 µM, first compound 0.1 µM): 77.3% | viability, T/C (second compound 3.16 µM, first compound 0.316 µM): 75.3% | viability, T/C (second compound 3.16 µM, first compound 1 µM): 84% | viability, T/C (second compound 3.16 µM, first compound 3.16 µM): 96.4% | viability, T/C (second compound 3.16 µM, first compound 10 µM): 15.1% | viability, T/C (second compound 10 µM, first compound 0.0316 µM): 65.4% | viability, T/C (second compound 10 µM, first compound 0.1 µM): 63.5% | viability, T/C (second compound 10 µM, first compound 0.316 µM): 53.9% | viability, T/C (second compound 10 µM, first compound 1 µM): 72.5% | viability, T/C (second compound 10 µM, first compound 3.16 µM): 77.6% | viability, T/C (second compound 10 µM, first compound 10 µM): 19.3%

CCN(c1cc(-c2ccc(CN3CCOCC3)cc2)cc(C(=O)NCc2c(C)cc(C)[nH]c2=O)c1C)C1CCOCC1 + Cc1ccccc1N=Nc1ccc(NC(=O)c2ccnn2C)c(C)c1
IC50 (second compound 0.1 µM): > 3 µM | IC50 (second compound 0.316 µM): > 3 µM | IC50 (second compound 1 µM): > 3 µM | IC50 (second compound 3.16 µM): > 3 µM | IC50 (second compound 10 µM): 1.43 µM | viability, T/C (second compound 0.1 µM, first compound 0.00949 µM): 98.1% | viability, T/C (second compound 0.1 µM, first compound 0.03 µM): 90.7% | viability, T/C (second compound 0.1 µM, first compound 0.0949 µM): 96.7% | viability, T/C (second compound 0.1 µM, first compound 0.3 µM): 89.5% | viability, T/C (second compound 0.1 µM, first compound 0.949 µM): 86% | viability, T/C (second compound 0.1 µM, first compound 3 µM): 80.5% | viability, T/C (second compound 0.316 µM, first compound 0.00949 µM): 93.4% | viability, T/C (second compound 0.316 µM, first compound 0.03 µM): 85.2% | viability, T/C (second compound 0.316 µM, first compound 0.0949 µM): 81.7% | viability, T/C (second compound 0.316 µM, first compound 0.3 µM): 80.7% | viability, T/C (second compound 0.316 µM, first compound 0.949 µM): 71.9% | viability, T/C (second compound 0.316 µM, first compound 3 µM): 76.8% | viability, T/C (second compound 1 µM, first compound 0.00949 µM): 82.1% | viability, T/C (second compound 1 µM, first compound 0.03 µM): 87.8% | viability, T/C (second compound 1 µM, first compound 0.0949 µM): 88.8% | viability, T/C (second compound 1 µM, first compound 0.3 µM): 79.1% | viability, T/C (second compound 1 µM, first compound 0.949 µM): 85.7% | viability, T/C (second compound 1 µM, first compound 3 µM): 69.5% | viability, T/C (second compound 3.16 µM, first compound 0.00949 µM): 72.2% | viability, T/C (second compound 3.16 µM, first compound 0.03 µM): 74.9% | viability, T/C (second compound 3.16 µM, first compound 0.0949 µM): 72.5% | viability, T/C (second compound 3.16 µM, first compound 0.3 µM): 68.2% | viability, T/C (second compound 3.16 µM, first compound 0.949 µM): 67.3% | viability, T/C (second compound 3.16 µM, first compound 3 µM): 58.8% | viability, T/C (second compound 10 µM, first compound 0.00949 µM): 57% | viability, T/C (second compound 10 µM, first compound 0.03 µM): 58.2% | viability, T/C (second compound 10 µM, first compound 0.0949 µM): 51% | viability, T/C (second compound 10 µM, first compound 0.3 µM): 57.4% | viability, T/C (second compound 10 µM, first compound 0.949 µM): 53% | viability, T/C (second compound 10 µM, first compound 3 µM): 44.8%
